Results taken from patent US20050090522A1 (priority 2001, published 2005).

System: HIV-1
Test: HIV-1 single-round infectious luciferase reporter virus (pseudotype) assay in HeLa CD4 CCR5 cells
Format: cell-based
Conditions: Human immunodeficiency virus 1, HeLa-CD4/CCR5, read-out: EC50 Group from TABLE 1, HeLa CD4 CCR5 cells, single-round infectious luciferase reporter virus
How it was run: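 Reporter pseudovirus produced in 293 cells infected HeLa cells expressing CD4/CCR5 at MOI ~0.01, with compound present at <10 μM final. Infection was quantified as luciferase luminescence after 72 h.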

SMILES	EC50 [nM]
CNc1cnc(-c2ncc(OC)c3c(C(=O)C(=O)N4CCN(C(=O)c5ccccc5)CC4)c[nH]c23)cn1 [Example 115, 1-benzoyl-4-[(4-methoxy-7-(2-methylamino-pyrazin-5-yl)-6-azaindol-3-yl)-oxoacetyl]piperazine]	< 1000
C[C@@H]1CN(C(=O)c2ccccc2)CCN1C(=O)C(=O)c1c[nH]c2c(-c3cccc(O)n3)nccc12 [Example 123]	< 1000
C[C@@H]1CN(C(=O)c2ccccc2)CCN1C(=O)C(=O)c1c[nH]c2c(-c3ccc(C(=O)O)cc3)nccc12 [Example 164]	< 1000
COc1cc(-c2ncc(OC)c3c(C(=O)C(=O)N4CCN(C(=O)c5ccccc5)CC4)c[nH]c23)nc(OC)n1 [Example 68, 1-benzoyl-4-[(4-methoxy-7-(2,6-dimethoxy-pyrimidin-4-yl)-6-azaindol-3-yl)-oxoacetyl]piperazine]	< 1000
COc1cnc(-n2ccc(C(O)C(C)C)n2)c2[nH]cc(C(=O)C(=O)N3CCN(C(=O)c4ccccc4)CC3)c12 (stereo not drawn) [Example 284, 1-benzoyl-4-[(4-methoxy-7-(3-(1-hydroxy-2-methyl-propyl)-pyrazol-1-yl)-6-azaindol-3-yl)-oxoacetyl]piperazine]	< 1000
COc1cnc(-c2ccc(C(=O)O)o2)c2[nH]cc(C(=O)C(=O)N3CCN(C(=O)c4ccccc4)CC3)c12 [Example 87, 1-benzoyl-4-[(4-methoxy-7-(2-hydroxycarbonyl-furan-5-yl)-6-azaindol-3-yl)-oxoacetyl]piperazine]	< 1000
O=C(C(=O)N1CCN(C(=O)c2ccccc2)CC1)c1c[nH]c2c(-c3ccncc3)nccc12 [Example 10, 1-(benzoyl)-4-[(7-(pyridin-4-yl)-6-azaindol-3-yl)-oxoacetyl]piperazine]	< 1000
CCN(CC)CCN(C)c1cnc(-c2ncc(OC)c3c(C(=O)C(=O)N4CCN(C(=O)c5ccccc5)CC4)c[nH]c23)cn1 [Example 175, 1-benzoyl-4-[(4-methoxy-7-(2-(N-diethylaminoethyl-N-methyl)aminopyrazin-S-yl)-6-azaindol-3-yl)-oxoacetyl]piperazine]	< 1000
O=C(C(=O)N1CCN(C(=O)c2ccccc2)CC1)c1c[nH]c2c(-c3cncnc3)nccc12 [Example 17, 1-benzoyl-4-[(7-(pyrimidin-5-yl)-6-azaindol-3-yl)-oxoacetyl]piperazine]	< 1000
O=C(C(=O)N1CCN(C(=O)c2ccc(Br)o2)CC1)c1c[nH]c2c(-c3ncon3)ncc(F)c12 [Example 167]	< 1000
CC(C)Cc1ncc(-c2nccc3c(C(=O)C(=O)N4CCN(C(=O)c5ccccc5)CC4)c[nH]c23)s1 [Example 89, 1-benzoyl-4-[(7-(2-isobutyl-thiazol-5-yl)-6-azaindol-3-yl)-oxoacetyl]piperazine]	< 1000
COc1cnc(-c2cccs2)c2[nH]cc(C(=O)C(=O)N3CCN(C(=O)c4ccccc4)CC3)c12 [Example 82, 1-benzoyl-4-[(4-methoxy-7-(thiophen-2-yl)-6-azaindol-3-yl)-oxoacetyl]piperazine]	< 1000
COc1cnc(-n2ccc(CN3CCS(=O)(=O)CC3)n2)c2[nH]cc(C(=O)C(=O)N3CCN(C(=O)c4ccccc4)CC3)c12 [Example 280, 1-benzoyl-4-[(4-methoxy-7-(3-(1,1-dioxo-thiomorpholin-4-yl)methyl-pyrazol-1-yl)-6-azaindol-3-yl)-oxoacetyl]piperazine]	< 1000
COc1cnc(-c2cnc(NS(C)(=O)=O)cn2)c2[nH]cc(C(=O)C(=O)N3CCN(C(=O)c4ccccc4)CC3)c12 [Example 47]	< 1000
CCNc1cnc(-c2ncc(OC)c3c(C(=O)C(=O)N4CCN(C(=O)c5ccccn5)CC4)c[nH]c23)cn1 [Example 179, 1-picolinoyl-4-[(4-methoxy-7-(2-ethylaminopyrazin-5-yl)-6-azaindol-3-yl)-oxoacetyl]piperazine]	< 1000
C[C@@H]1CN(C(=O)c2ccccc2)CCN1C(=O)C(=O)c1c[nH]c2c(-c3ccc(O)cn3)nccc12 [Example 124]	< 1000

SMILES	EC50 [nM]
COc1cnc(Nc2ccccn2)c2[nH]cc(C(=O)C(=O)N3CCN(C(=O)c4ccccc4)CC3)c12 [Example 330]	< 1000
O=C(C(=O)N1CCN(C(=O)c2ccccc2)CC1)c1c[nH]c2c(-c3cncnc3)ncc(Cl)c12 [Example 144]	< 1000
COc1cnc(-c2cnc(N(C)C)cn2)c2[nH]cc(C(=O)C(=O)N3CCN(C(=O)c4ccccn4)CC3)c12 [Example 103, 1-picolinoyl-4-[(4-methoxy-7-(2-dimethylamino-pyrazin-5-yl)-6-azaindol-3-yl)-oxoacetyl]piperazine]	< 1000
COc1cnc(-c2cnccn2)c2[nH]cc(C(=O)C(=O)N3CCN(C(=O)c4ccno4)CC3)c12 [Example 196]	< 1000
COc1cnc(-c2cnccn2)c2[nH]cc(C(=O)C(=O)N3CCN(C(=O)c4nc(N)n[nH]4)CC3)c12 [Example 198]	< 1000
COc1cnc(-c2cnc(C)cn2)c2[nH]cc(C(=O)C(=O)N3CCN(C(=O)c4ccccn4)CC3)c12 [Example 180, 1-picolinoyl-4-[(4-methoxy-7-(2-methylpyrazin-5-yl)-6-azaindol-3-yl)-oxoacetyl]piperazine]	< 1000
C[C@@H]1CN(C(=O)c2ccccc2)CCN1C(=O)C(=O)c1c[nH]c2c(-c3cccnc3)nccc12 [Example 18, 1-benzoyl-3-(R)-methyl-4-[(7-(pyridin-3-yl)-6-azaindol-3-yl)-oxoacetyl]piperazine]	< 1000
COc1cnc(-c2cccc(C)n2)c2[nH]cc(C(=O)C(=O)N3CCN(C(=O)c4ccccc4)CC3)c12 [Example 76, 1-benzoyl-4-[(4-methoxy-7-(2-methyl-pyridin-6-yl)-6-azaindol-3-yl)-oxoacetyl]piperazine]	< 1000
CNCc1ccn(-c2ncc(OC)c3c(C(=O)C(=O)N4CCN(C(=O)c5ccccc5)CC4)c[nH]c23)n1 [Example 283, 1-benzoyl-4-[(4-methoxy-7-(3-methylaminomethyl-pyrazol-1-yl)-6-azaindol-3-yl)-oxoacetyl]piperazine]	< 1000
C[C@@H]1CN(C(=O)c2ccccn2)CCN1C(=O)C(=O)c1c[nH]c2c(-c3cnccn3)ncc(F)c12 [Example 141]	< 1000
C[C@@H]1CN(C(=O)c2ccccc2)CCN1C(=O)C(=O)c1c[nH]c2c(-c3ccc(N)cn3)nccc12 [Example 114, (R)-1-benzoyl-3-methyl-4-[(7-(5-amino-pyridin-2-yl)-6-azaindol-3-yl)-oxoacetyl]piperazine]	< 1000
COc1cnc(-c2cnc(CC(C)C)s2)c2[nH]cc(C(=O)C(=O)N3CCN(C(=O)c4ccccc4)CC3)c12 [Example 90, 1-benzoyl-4-[(4-methoxy-7-(2-isobutyl-thiazol-5-yl)-6-azaindol-3-yl)-oxoacetyl]piperazine]	< 1000
COc1cnc(-n2ccc(C3(O)CCCC3)n2)c2[nH]cc(C(=O)C(=O)N3CCN(C(=O)c4ccccc4)CC3)c12 [Example 282, 1-benzoyl-4-[(4-methoxy-7-(3-(1-hydroxy-cyclopentyl)-pyrazol-1-yl)-6-azaindol-3-yl)-oxoacetyl]piperazine]	< 1000
CC(C)(C)OC(=O)N1CCN(C(=O)C(=O)c2c[nH]c3c(-c4cnccn4)ncc(Cl)c23)CC1 [Example 165]	< 1000
C[C@@H]1CN(C(=O)c2ccccn2)CCN1C(=O)C(=O)c1c[nH]c2c(-c3cncs3)nccc12 [Example 109, (R)-1-picolinoyl-3-methyl-4-[(7-(thiazol-5-yl)-6-azaindol-3-yl)-oxoacetyl]piperazine]	< 1000

Same assay, conditions: Human immunodeficiency virus 1, HeLa-CD4/CCR5, read-out: EC50 Group from Table 1, Table 2-1; HeLa CD4 CCR5 cells, single-round luciferase reporter virus

SMILES	EC50 [nM]
COc1cnc(-n2nnc3ccccc32)c2[nH]cc(C(=O)C(=O)N3CCN(C(=O)c4ccccc4)[C@H](C)C3)c12 [Example 246, (R)-1-benzoyl-2-methyl-4-[(4-methoxy-7-(1,2,3-benzotriazol-1-yl)-6-azaindol-3-yl)-oxoacetyl]piperazine]	< 1000
COc1cnc(-n2ccc(NC(C)=O)n2)c2[nH]cc(C(=O)C(=O)N3CCN(C(=O)c4ccccc4)[C@H](C)C3)c12 [Example 262, (R)-1-benzoyl-2-methyl-4-[(4-methoxy-7-(3-acetylamino-pyrazol-1-yl)-6-azaindol-3-yl)-oxoacetyl]piperazine]	< 1000
COc1cnc(-n2ccc(C(C)(C)C)n2)c2[nH]cc(C(=O)C(=O)N3CCN(C(=O)c4ccccc4)[C@H](C)C3)c12 [Example 243, (R)-1-benzoyl-2-methyl-4-[(4-methoxy-7-(3-t-butyl-pyrazol-1-yl)-6-azaindol-3-yl)-oxoacetyl]piperazine]	< 1000
COc1cnc(-n2ccc(-c3ccccc3)n2)c2[nH]cc(C(=O)C(=O)N3CCN(C(=O)c4ccccc4)[C@H](C)C3)c12 [Example 260, (R)-1-benzoyl-2-methyl-4-[(4-methoxy-7-(3-phenyl-pyrazol-1-yl)-6-azaindol-3-yl)-oxoacetyl]piperazine]	< 1000
CCCc1ccn(-c2ncc(OC)c3c(C(=O)C(=O)N4CCN(C(=O)c5ccccc5)[C@H](C)C4)c[nH]c23)n1 [Example 231, (R)-1-benzoyl-2-methyl-4-[(4-methoxy-7-(3-propyl-pyrazol-1-yl)-6-azaindol-3-yl)-oxoacetyl]piperazine]	< 1000

Same assay, conditions: Human immunodeficiency virus 1, HeLa-CD4/CCR5, read-out: EC50 Group from Table 1, Table 4; HeLa CD4 CCR5 cells, single-round luciferase reporter virus

SMILES	EC50 [nM]
O=C(C(=O)N1CCN(C(=O)c2ccccc2)CC1)c1c[nH]c2c(-c3cc4ccccc4o3)ccnc12 [Example 203, 1-(7-benzofuran-2-yl-1H-pyrrolo[3,2-b]pyridin-3-yl)-2-(4-benzoyl-piperazin-1-yl)-ethane-1,2-dione]	< 1000
C[C@@H]1CN(C(=O)c2ccccc2)CCN1C(=O)C(=O)c1c[nH]c2c(-c3ncco3)ccnc12 [Example 126]	< 1000
COc1ccc(-c2ccnc3c(C(=O)C(=O)N4CCN(C(=O)c5ccccc5)C[C@@H]4C)c[nH]c23)cc1 [Example 66, 1-benzoyl-3-(S)-methyl-4-[(7-(4-methoxy)-4-azaindol-3-yl)-oxoacetyl]piperazine]	< 1000
